Values after ≈ are worked out from the molar mass of the structure shown. Like-named read-outs stand apart in the source and are kept apart here.
Key:
Acinetobacter baumannii = test: Mice neutropenic thigh infection model, human-simulated dosing regimen, Example 5; type: in vivo; details: monotherapy, human-simulated imipenem dosing regimen (500 mg, q6h, infused for 60 minutes); seven strains; 24 h
Klebsiella pneumoniae = test: as above; type: in vivo; details: monotherapy, human-simulated imipenem dosing regimen (500 mg, q6h, infused for 60 minutes); four strains
Method: A total of 15 bacterial strains (4 strains of Pseudomonas aeruginosa, 4 strains of Klebsiella pneumoniae and 7 strains of Acinetobacter baumannii, see the table below) were selected for dose study of Compound 1 in the mice neutropenic thigh infection model. In terms of administrated dose, imipenem was administered with a human-simulated dosing regimen (500 mg, q6h, infused for 60 minutes),and also combined with different doses of Compound 1.
At 0 h, the mean bacterial load in the thighs of mice was 5.92 ± 0.14 log10 CFU/thigh.

[1] = tested on: Klebsiella pneumoniae ARo113; test: Neutropenic mouse thigh infection model, Example 4; type: in vivo; details: doses at 1,3,5,7 h, thighs 9 h after inoculation
Method: (§1) In the following examples, the tests are conducted following the steps below. • (1) Immunization of mice: All mice are injected intraperitoneally with 150 mg/kg cyclophosphamide 4 days before inoculation and 100 mg/kg cyclophosphamide 1 day before inoculation to reduce their neutrophils by immunosuppression. […] The mice are inoculated approximately 24 hours after the second administration of the immunosuppressant. • (2) Bacterial culture: All bacterial strains used for inoculation are prepared from overnight broth cultures. In brief, each strain is allowed to grow in cation-adjusted MuellerHinton broth in a shaking incubator (300 RPM) at 37°C. The overnight cultures are washed twice with phosphate buffer solution (PBS) and adjusted to the optimal concentration in PBS.
(§2) For intravenous (IV) administration, the solution of Compound 1 is prepared using a Captisol vehicle, which is 25 mM acetate buffer (prepared with sodium acetate trihydrate) containing 10% w/v Captisol. The pH is adjusted to 5.0 with 2N acetic acid solution. A desired volume of buffer is added to the weighed sample, the desired concentration of Compound 1 is prepared in the buffer, which is then ultrasonically heated in a water bath until a clear solution was obtained. The administrated volume of Compound 1 is 5 mL/kg.
(§3) For subcutaneous (SC) administration, an imipenem solution or imipenem-cilastatin solution is prepared in sterile PBS by using imipenem monohydrate or imipenem monohydrate and cilastatin sodium. The desired concentration of imipenem is prepared by adding PBS to the solid powder, then sonicating the mixture in a water bath until a clear solution is obtained, and the administrated volume is 10 mL/kg.
The mice were divided into 16 groups, with 5 mice in each group. The test was carried out following the above steps, the concentration of the bacterial solution of Klebsiella pneumoniae ARo113 was 4.0x10^6 CFU per gram of thigh tissues, and the administration was conducted according to the scheme in the table below.
For Groups 2 to 16 above, animals were euthanized 9 hours after inoculation using an overdose of sodium pentobarbital, followed by confirmation of death by cervical dislocation. The thighs were dissected and weighed, then homogenized in an ice-cold sterile phosphate buffer using a Precellys microsphere homogenizer; and the homogenate was quantitatively cultured on drug-free agar (CLED or PSA) and incubated for 12-16 h at 30°C, followed by colony counting.
(§4) For the […] Group 1 (control group) above, animals were euthanized with an overdose of sodium pentobarbital 1 hour after inoculation. As described above, bilateral thighs were dissected and quantitatively cultured for use as final samples.

[2] = tested on: Acinetobacter baumannii AR0274; test: Neutropenic mouse thigh infection model, Example 3; type: in vivo; details: doses at 1,3,5,7 h, thighs 9 h after inoculation
Method: as §1, §2, §3
The mice were divided into 16 groups, with 5 mice in each group. The test was carried out following the above experimental steps, the inoculation amount of Acinetobacter baumannii AR0274 was 1.8×10^6 CFU per gram of thigh tissue, and the administration was conducted according to the scheme in the table below.
(§5) For Groups 2 to 16 above, animals were euthanized 9 hours after inoculation using an overdose of sodium pentobarbital, followed by confirmation of death by cervical dislocation. The thighs were dissected and weighed, then homogenized in an ice-cold sterile phosphate buffer using a Precellys microsphere homogenizer; and the homogenate was quantitatively cultured on drug-free agar (CLED or PSA) and incubated for 18-24 h at 37°C, followed by colony counting.
as §4

Pseudomonas aeruginosa = test: Mice neutropenic thigh infection model, human-simulated dosing regimen, Example 5; type: in vivo; details: monotherapy, human-simulated imipenem dosing regimen (500 mg, q6h, infused for 60 minutes); four strains; 24 h
Method: In terms of administrated dose, imipenem was administered with a human-simulated dosing regimen (500 mg, q6h, infused for 60 minutes),and also combined with different doses of Compound 1.

[3] = tested on: Pseudomonas aeruginosa ACC00680; test: Neutropenic mouse thigh infection model, Example 1 (imipenem and Compound 1); type: in vivo; details: doses at 1,3,5,7 h, thighs 9 h after inoculation
Method: as §1, §2, §3
The mice were divided into 15 groups, with 5 mice in each group. The test was carried out following the above steps, the concentration of the bacterial solution of Pseudomonas aeruginosa ACC00680 was 1.83×10^5 colony forming unit (CFU) per gram of thigh tissues, and the administration was conducted according to the scheme in the table below.
For Groups 2 to 15 above, animals were euthanized 9 hours after inoculation using an overdose of sodium pentobarbital, followed by confirmation of death by cervical dislocation. The thighs were dissected and weighed, then homogenized in an ice-cold sterile phosphate buffer using a Precellys microsphere homogenizer; and the homogenate was quantitatively cultured on drug-free agar (CLED or PSA) and incubated for 18-24 h at 37°C, followed by colony counting.
as §4

[4] = Solubility of Compound 1 (HPLC), selection of solubilizer type; type: physicochemical; details: for solubility at 24 h: read-out: Concentration
Method: The solubilization effect of sodium sulfobutylether-β-cyclodextrin (SBECD) and hydroxypropyl-β-cyclodextrin (HP-β-CD) on Compound 1 was investigated by taking the solubility in 50 mM pH 4.5 acetate buffer medium and water as a reference. […] Table Solubility of Compound 1 incubated for 24 h at 25°C
In the art, surfactants may also be used for solubilization. To further improve the solubility of Compound 1, a surfactant was added on the basis of SBECD to investigate the solubility. […] Table Solubility of Compound 1 incubated for 24 h at 25°C

[5] = tested on: Pseudomonas aeruginosa ACC00680; test: Neutropenic mouse thigh infection model, Example 2 (imipenem, cilastatin and Compound 1); type: in vivo; details: Compound 1 96 mg/kg total IV; doses at 1,3,5,7 h; thighs 9 h after inoculation
Method: as §1, with “The overnight cultures are washed twice with phosphate buffer solution (PBS) and adjusted to the optimal concentration in PBS.” left out
as §5, §4

OXA β-lactamases = test: In vitro inhibition of OXA β-lactamases; type: biochemical, Acinetobacter baumannii; details: in vitro (background statement)

C[C@@H](O)[C@H]1C(=O)N2C(C(=O)O)=C(SCCN=CN)C[C@H]12 [Imipenem, imipenem monohydrate]
mean increase in bacterial load (Acinetobacter baumannii): 2.16 ± 0.74 log10 CFU/thigh | mean increase in bacterial load (Klebsiella pneumoniae): 2.83 ± 0.81 log10 CFU/thigh | Change in Pre-Tx Log10 loading (CFU/g) ([1]; Imipenem 96 mg/kg total SC): 0.93 log10 CFU/g | Group geometric mean (CFU/g) ([1]; Imipenem 96 mg/kg total SC): 1.34×10^7 CFU/g | Log10 group geometric mean (CFU/g) ([1]; Imipenem 96 mg/kg total SC): 7.13 log10 CFU/g | Change in Pre-Tx Log10 loading (CFU/g) ([2]; Imipenem 96 mg/kg total SC): 1.85 log10 CFU/g | Group geometric mean (CFU/g) ([2]; Imipenem 96 mg/kg total SC): 3.91×10^7 CFU/g | Log10 group geometric mean (CFU/g) ([2]; Imipenem 96 mg/kg total SC): 7.59 log10 CFU/g | mean increase in bacterial load (Pseudomonas aeruginosa): 2.64 ± 1.18 log10 CFU/thigh | Change in Pre-Tx Log10 load ([3]; Imipenem 100 mg/kg total SC): 0.73 log10 CFU/g | Group geometric mean (CFU/g) ([3]; Imipenem 100 mg/kg total SC): 1.08×10^6 CFU/g | Log10 group geometric mean (CFU/g) ([3]; Imipenem 100 mg/kg total SC): 6.03 log10 CFU/g

N=C1NC[C@@H](c2nnc([C@@H]3CC4(CC4)[C@@H]4CN3C(=O)N4OS(=O)(=O)O)o2)N1 [Compound 1]
solubility at 24 h ([4]; 50 mm acetate buffer, pH 4.5, aqueous buffer, solubility in 50 mM acetate buffer (pH 4.5) (control), 24 h at 25°C): 3850 µg/mL (≈ 9.64 mM) | solubility at 24 h ([4]; aqueous hp-β-cd 10%, solubility in aqueous HP-β-CD 10%, 24 h at 25°C): 5000 µg/mL (≈ 12.5 mM) | solubility at 24 h ([4]; aqueous hp-β-cd 20%, solubility in aqueous HP-β-CD 20%, 24 h at 25°C): 6400 µg/mL (≈ 16 mM) | solubility at 24 h ([4]; aqueous hp-β-cd 30%, solubility in aqueous HP-β-CD 30%, 24 h at 25°C): 7720 µg/mL (≈ 19.3 mM) | solubility at 24 h ([4]; aqueous sbecd 10%, peg 400, organic solvent or mixture, solubility in aqueous SBECD 10% and PEG 400 5%, 24 h at 25°C): 6210 µg/mL (≈ 15.5 mM) | solubility at 24 h ([4]; aqueous sbecd 10%, peg 400, organic solvent or mixture, solubility in aqueous SBECD 10% and PEG 400 20%, 24 h at 25°C): 6350 µg/mL (≈ 15.9 mM) | solubility at 24 h ([4]; aqueous sbecd 10%, peg 400, organic solvent or mixture, solubility in aqueous SBECD 10% and PEG 400 40%, 24 h at 25°C): 6840 µg/mL (≈ 17.1 mM) | solubility at 24 h ([4]; aqueous sbecd 10%, pvp k12, solubility in aqueous SBECD 10% and PVP K12 0.5%, 24 h at 25°C): 6440 µg/mL (≈ 16.1 mM) | solubility at 24 h ([4]; aqueous sbecd 10%, pvp k12, solubility in aqueous SBECD 10% and PVP K12 1%, 24 h at 25°C): 6420 µg/mL (≈ 16.1 mM) | solubility at 24 h ([4]; aqueous sbecd 10%, pvp k12, solubility in aqueous SBECD 10% and PVP K12 2.5%, 24 h at 25°C): 6380 µg/mL (≈ 16 mM) | solubility at 24 h ([4]; aqueous sbecd 10%, solubility in aqueous SBECD 10%, 24 h at 25°C): 5960 µg/mL (≈ 14.9 mM) | solubility at 24 h ([4]; aqueous sbecd 20%, solubility in aqueous SBECD 20%, 24 h at 25°C): 8460 µg/mL (≈ 21.2 mM) | solubility at 24 h ([4]; aqueous sbecd 30%, solubility in aqueous SBECD 30%, 24 h at 25°C): 10500 µg/mL (≈ 26.3 mM) | solubility at 24 h ([4]; aqueous sbecd, poloxamer 188, solubility in aqueous SBECD 10% and Poloxamer 188 1%, 24 h at 25°C): 6750 µg/mL (≈ 16.9 mM) | solubility at 24 h ([4]; aqueous sbecd, pvp, poloxamer 188, solubility in aqueous SBECD 10%, PVP K12 0.5% and Poloxamer 188 1%, 24 h at 25°C): 6950 µg/mL (≈ 17.4 mM) | solubility at 24 h ([4]; aqueous sbecd, pvp, solutol hs15, solubility in aqueous SBECD 10%, PVP K12 0.5% and Solutol HS15 1%, 24 h at 25°C): 6870 µg/mL (≈ 17.2 mM) | solubility at 24 h ([4]; aqueous sbecd, pvp, tween 80, solubility in aqueous SBECD 10%, PVP K12 0.5% and Tween 80 1%, 24 h at 25°C): 6990 µg/mL (≈ 17.5 mM) | solubility at 24 h ([4]; aqueous sbecd, solutol hs15, solubility in aqueous SBECD 10% and Solutol HS15 1%, 24 h at 25°C): 6680 µg/mL (≈ 16.7 mM) | solubility at 24 h ([4]; aqueous sbecd, tween 80, solubility in aqueous SBECD 10% and Tween 80 1%, 24 h at 25°C): 6920 µg/mL (≈ 17.3 mM) | Concentration ([4]; solubility in aqueous SBECD 10%, 24 h at 25°C): 5960 µg/mL | Concentration ([4]; solubility in water (control), incubated 24 h at 25°C): 600 µg/mL | solubility at 24 h ([4]; water, solubility in water (control), incubated 24 h at 25°C): 600 µg/mL (≈ 1.5 mM) | Change in Pre-Tx Log10 loading (CFU/g) ([1]; Compound 1 96 mg/kg total): 1.11 log10 CFU/g | Log10 group geometric mean (CFU/g) ([1]; Compound 1 96 mg/kg total): 7.31 log10 CFU/g | Change in Pre-Tx Log10 loading (CFU/g) ([2]; Compound 1 96 mg/kg total IV): 1.53 log10 CFU/g | Log10 group geometric mean (CFU/g) ([2]; Compound 1 96 mg/kg total IV): 7.28 log10 CFU/g | Change in Pre-Tx Log10 loading (CFU/g) [5]: 2.45 log10 CFU/g | Log10 group geometric mean (CFU/g) [5]: 7.51 log10 CFU/g | inhibition of OXA β-lactamases (OXA β-lactamases): effectively inhibit | Change in Pre-Tx Log10 load ([3]; Compound 1 50 mg/kg total IV): 0.36 log10 CFU/g | Log10 group geometric mean (CFU/g) ([3]; Compound 1 50 mg/kg total IV): 5.67 log10 CFU/g | Change in Pre-Tx Log10 load ([3]; Compound 1 75 mg/kg total IV): 0.98 log10 CFU/g | Log10 group geometric mean (CFU/g) ([3]; Compound 1 75 mg/kg total IV): 6.29 log10 CFU/g | Change in Pre-Tx Log10 load ([3]; Compound 1 100 mg/kg total IV): 1.35 log10 CFU/g | Log10 group geometric mean (CFU/g) ([3]; Compound 1 100 mg/kg total IV): 6.65 log10 CFU/g

From patent EP4659750A1, “PHARMACEUTICAL COMPOSITION CONTAINING ß-LACTAMASE INHIBITOR AND USE THEREOF” (Evopoint Biosciences Co., Ltd., priority 2023, dated 2024)
